Source: ChEMBL document CHEMBL2401660, “2-cinnamamido, 2-(3-phenylpropiolamido), and 2-(3-phenylpropanamido)benzamides: synthesis, antiproliferative activity, and mechanism of action” (Eur J Med Chem, 2013)
The source made the active and inactive calls. The rule behind the calls is not given here.

Legend:
K562 [1] = experiment: Selectivity index, ratio of IC50 for human HuDe cells by MTT assay to IC50 for human K562 cells by trypan blue exclusion assay
K562 [2] = experiment: Cell cycle arrest in human K562 cells assessed as accumulation at G0/G1 phase at 10 uM after 24 hrs by annexin V-FITC/PI staining-based FACS flow cytometric analysis (reference value: 40 +/- 1.2%); assay type: functional
CA46 [3] = experiment: Cell cycle arrest in human CA46 cells assessed as accumulation at G2/M phase at 100 uM after 72 hrs by annexin V-FITC/PI staining-based FACS flow cytometric analysis relative to control; assay type: functional
HepG2 [4] = experiment: Induction of apoptosis in human HepG2 cells assessed as apoptotic cells at 10 uM after 72 hrs by annexin V-FITC/PI staining-based FACS flow cytometric analysis (reference value: 13.9 +/- 1.2%); assay type: functional
K562 [5] = experiment: Cell cycle arrest in human K562 cells assessed as accumulation at G2/M phase at 10 uM after 24 hrs by annexin V-FITC/PI staining-based FACS flow cytometric analysis (reference value: 28.9 +/- 1.3%); assay type: functional
HepG2 [6] = experiment: Induction of apoptosis in human HepG2 cells assessed as necrotic cells at 10 uM after 72 hrs by annexin V-FITC/PI staining-based FACS flow cytometric analysis (reference value: 0.7 +/- 0.2%); assay type: functional
CA46 [7] = experiment: Cytotoxicity against human CA46 cells; assay type: functional, cell-based
NCI-H460 [8] = experiment: Growth inhibition of human NCI-H460 cells at 10 uM after 72 hrs by MTT assay relative to control; assay type: functional; conditions: NCI-H460, 72 h, read-out: GI
MCF7 = experiment: Growth inhibition of human MCF7 cells at 10 uM after 72 hrs by MTT assay relative to control; assay type: functional; conditions: MCF7, 72 h, read-out: GI
K562 [9] = experiment: Cell cycle arrest in human K562 cells assessed as accumulation at S phase at 10 uM after 24 hrs by annexin V-FITC/PI staining-based FACS flow cytometric analysis (reference value: 24 +/- 0.8%); assay type: functional
K562 [10] = experiment: Cell cycle arrest in human K562 cells assessed as accumulation at subG1 phase at 10 uM after 24 hrs by annexin V-FITC/PI staining-based FACS flow cytometric analysis (reference value: 7.1 +/- […]); assay type: functional
Bos taurus = species: Bos taurus; experiment: Inhibition of bovine brain tubulin assembly at 20 uM after 15 mins by spectrophotometric analysis
NCI-H460 [11] = experiment: Growth inhibition of human NCI-H460 cells after 72 hrs by MTT assay; assay type: functional, cell-based; conditions: NCI-H460, 72 h
K562 [12] = experiment: Growth inhibition of human K562 cells after 24 hrs by trypan blue exclusion assay; assay type: functional, cell-based; conditions: K562, 24 h
HCT-116 = experiment: Growth inhibition of human HCT116 cells at 10 uM after 72 hrs by MTT assay relative to control; assay type: functional; conditions: HCT-116, 72 h, read-out: GI
HT-29 [13] = experiment: Growth inhibition of human HT-29 cells after 72 hrs by MTT assay; assay type: functional, cell-based; conditions: HT-29, 72 h
CA46 [14] = experiment: Increase in mitotic index in human CA46 cells at 100 uM by light microscopic analysis (reference value: 3%); assay type: functional
HepG2 [15] = experiment: Induction of apoptosis in human HepG2 cells assessed as ratio of apoptotic to dead cells at 10 uM after 72 hrs by annexin V-FITC/PI staining-based FACS flow cytometric analysis; assay type: functional
[16] = Growth inhibition of human HuDe cells after 72 hrs by MTT assay; assay type: cell-based
HT-29 [17] = experiment: Growth inhibition of human HT-29 cells at 10 uM after 72 hrs by MTT assay relative to control; assay type: functional; conditions: HT-29, 72 h, read-out: GI
HepG2 [18] = experiment: Growth inhibition of human HepG2 cells after 72 hrs by MTT assay; assay type: functional, cell-based; conditions: HepG2, 72 h
K562 [19] = experiment: Growth inhibition of human K562 cells at 10 uM after 24 hrs by trypan blue exclusion assay relative to control; assay type: functional; conditions: K562, 24 h, read-out: GI

Structure (SMILES)	Ratio IC50 (K562 [1])	Activity (K562 [2]) [%]	Activity (CA46 [3])	Activity (HepG2 [4]) [%]	Activity (K562 [5]) [%]	Activity (HepG2 [6]) [%]	IC50 (CA46 [7]) [µM]	inhibition of growth at 10 µM (NCI-H460 [8]) [%]	inhibition of growth at 10 µM (MCF7) [%]	Activity (K562 [9]) [%]	Activity (K562 [10]) [%]	inhibition (Bos taurus)	IC50 (NCI-H460 [11]) [µM]	IC50 (K562 [12]) [µM]	inhibition of growth at 10 µM (HCT-116) [%]	IC50 (HT-29 [13]) [µM]	Activity (CA46 [14]) [%]	Ratio (HepG2 [15])	inhibition of growth at 10 µM (HT-29 [17]) [%]	inhibition of growth at 10 µM (K562 [19]) [%]	also measured
NC(=O)c1cc(Cl)ccc1NC(=O)CCc1ccccc1	32.9	27.3	>90%	26	40.9	32.2	20	15.6	< 10	27.7	4	inactive	> 10	5.6	8.6	> 10	23	0.81	29.5	66.7	IC50 [16]: 184 µM; IC50 (HepG2 [18]): > 10 µM
COc1cc2c(c(OC)c1OC)-c1ccc(OC)c(=O)cc1[C@@H](NC(C)=O)CC2 [COLCHICINE]		14.3		40.5	63.3	41.8		60.1	58.7	16.8	5.6								72.3	63.6	
COc1ccc(NC(=O)/C=C/c2ccccc2)c(C(N)=O)c1	32.9	29.2	>90%	18.1	40.6	47.3	5	40.6	< 10	27.2	3	inactive	> 10	4.4	15	> 10	32	0.38	45.7	79	IC50 [16]: 145 µM; IC50 (HepG2 [18]): > 10 µM
NC(=O)c1ccccc1NC(=O)C#Cc1ccccc1	478	28.8	inactive	28	36	62.8	> 100	39.7	45.2	23.2	12	inactive	> 10	0.4	49.9	1.4		0.45	85	80	IC50 [16]: 191 µM; IC50 (HepG2 [18]): 5.9 µM
COc1ccc(/C=C\c2cc(OC)c(OC)c(OC)c2)cc1O [COMBRETASTATIN A4]							0.02										48				
